# Biological target: T1, F508del (Homo sapiens, UniProt P13569, DEL508-508)
# T1 construct: expressed in transfected cells
# Assay: Protocol 2: FRET membrane potential optical assay (VIPR), identification of correction compounds
# Type: cell-based
# Conditions: Table 3; compounds of Table 1 as modulators of CFTR activity; protocol not stated
# How it was run: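 Correction of the F508del trafficking defect is scored as forskolin (10 μM)/genistein (20 μM)-stimulated Cl^− efflux in NIH3T3 mouse fibroblasts after a 16 hr, 37° C. compound exposure. Depolarization was followed optically using voltage-sensing FRET dyes.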
# T1 sequence (P13569 with tags, fused parts or gaps DEL508-508): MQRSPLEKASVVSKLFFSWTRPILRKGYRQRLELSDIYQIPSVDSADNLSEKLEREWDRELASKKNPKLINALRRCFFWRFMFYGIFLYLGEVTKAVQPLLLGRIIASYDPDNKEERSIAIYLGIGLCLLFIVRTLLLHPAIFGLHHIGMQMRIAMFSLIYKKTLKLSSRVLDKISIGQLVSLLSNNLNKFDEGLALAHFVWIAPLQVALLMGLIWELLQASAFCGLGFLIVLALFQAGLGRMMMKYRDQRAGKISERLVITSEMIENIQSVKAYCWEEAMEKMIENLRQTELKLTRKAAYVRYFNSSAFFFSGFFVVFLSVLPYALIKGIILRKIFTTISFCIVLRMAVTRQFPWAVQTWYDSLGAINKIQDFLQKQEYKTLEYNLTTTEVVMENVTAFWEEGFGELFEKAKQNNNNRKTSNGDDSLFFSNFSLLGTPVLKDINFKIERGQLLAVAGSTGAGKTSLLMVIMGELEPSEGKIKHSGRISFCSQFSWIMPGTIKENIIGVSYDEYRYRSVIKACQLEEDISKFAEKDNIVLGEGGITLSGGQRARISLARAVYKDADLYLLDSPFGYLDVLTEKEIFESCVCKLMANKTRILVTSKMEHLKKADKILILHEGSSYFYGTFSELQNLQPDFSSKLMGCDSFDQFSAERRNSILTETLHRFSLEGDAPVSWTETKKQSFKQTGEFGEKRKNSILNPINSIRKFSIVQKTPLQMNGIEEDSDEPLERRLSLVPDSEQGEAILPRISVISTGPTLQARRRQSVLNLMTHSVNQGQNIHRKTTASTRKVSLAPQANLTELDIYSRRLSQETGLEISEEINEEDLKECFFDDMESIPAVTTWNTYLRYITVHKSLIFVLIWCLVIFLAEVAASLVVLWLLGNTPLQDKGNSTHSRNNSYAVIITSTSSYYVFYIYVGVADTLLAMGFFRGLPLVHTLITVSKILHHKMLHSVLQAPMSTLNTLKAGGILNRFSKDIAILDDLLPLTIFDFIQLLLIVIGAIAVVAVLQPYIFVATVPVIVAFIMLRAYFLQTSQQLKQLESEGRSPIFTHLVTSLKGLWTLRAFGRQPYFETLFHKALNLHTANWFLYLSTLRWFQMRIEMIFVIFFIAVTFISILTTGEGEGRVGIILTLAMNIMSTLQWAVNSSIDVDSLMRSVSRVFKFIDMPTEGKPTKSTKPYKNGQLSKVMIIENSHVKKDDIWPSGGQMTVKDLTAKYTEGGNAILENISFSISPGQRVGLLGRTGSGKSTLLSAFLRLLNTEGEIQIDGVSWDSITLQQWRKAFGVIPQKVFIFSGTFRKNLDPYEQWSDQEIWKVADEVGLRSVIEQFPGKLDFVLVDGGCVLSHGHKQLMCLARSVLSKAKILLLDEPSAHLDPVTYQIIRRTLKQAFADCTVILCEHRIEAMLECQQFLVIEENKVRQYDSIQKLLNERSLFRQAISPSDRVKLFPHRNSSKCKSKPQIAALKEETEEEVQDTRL
row,SMILES,EC30
1,"COC(=O)[C@@H]1CCCN1c1nc(-c2cc(F)cc(OCC(C)C)c2)ccc1C(=O)NS(=O)(=O)c1cccc(N)n1 [Compound 385, methyl (2S)-1-[3-[(6-amino-2-pyridyl)sulfonylcarbamoyl]-6-(3-fluoro-5-isobutoxy-phenyl)-2-pyridyl]pyrrolidine-2-carboxylate]",+++ (“+++” means <3 uM)
2,"Cc1cc(C)c(Oc2nc(-c3cccc4c3ccn4C)ccc2C(=O)NS(=O)(=O)c2cccc(N)n2)c(C)c1 [Compound 386, N-[(6-amino-2-pyridyl)sulfonyl]-6-(1-methylindol-4-yl)-2-(2,4,6-trimethylphenoxy)pyridine-3-carboxamide]",+++ (“+++” means <3 uM)
3,"COc1ncc(F)cc1-c1ccc(C(=O)NS(=O)(=O)c2cccc(N)n2)c(Oc2c(C)cc(C)cc2C)n1 [Compound 387, N-[(6-amino-2-pyridyl)sulfonyl]-6-(5-fluoro-2-methoxy-3-pyridyl)-2-(2,4,6-trimethylphenoxy)pyridine-3-carboxamide]",+++ (“+++” means <3 uM)
4,"Cc1cc(C)c(Oc2nc(-c3cccc(CC#N)c3)ccc2C(=O)NS(=O)(=O)c2cccc(N)n2)c(C)c1 [Compound 388, N-[(6-amino-2-pyridyl)sulfonyl]-6-[3-(cyanomethyl)phenyl]-2-(2,4,6-trimethylphenoxy)pyridine-3-carboxamide]",++ (“++” means between 3 uM and 10 uM)
5,"CC(C)COc1ccnc(-c2ccc(C(=O)NS(=O)(=O)c3cccc(N)n3)c(N3[C@H](C)CC[C@@H]3C)n2)c1 [Compound 389, N-[(6-amino-2-pyridyl)sulfonyl]-2-[(2S,5R)-2,5-dimethylpyrrolidin-1-yl]-6-(4-isobutoxy-2-pyridyl)pyridine-3-carboxamide]",+++ (“+++” means <3 uM)
6,"CC(C)Oc1ccc(-c2nc(N3[C@H](C)CC[C@@H]3C)c(C(=O)NS(=O)(=O)c3cccc(N)n3)cc2Br)cn1 [Compound 390, N-[(6-amino-2-pyridyl)sulfonyl]-5-bromo-2-[(2S,5R)-2,5-dimethylpyrrolidin-1-yl]-6-(6-isopropoxy-3-pyridyl)pyridine-3-carboxamide]",+++ (“+++” means <3 uM)
7,"Cc1ccc(-c2ccc(C(=O)NS(=O)(=O)c3ccc[nH]c3=O)c(N3[C@H](C)CC[C@@H]3C)n2)cc1 [Compound 392, 2-[(2R,5S)-2,5-dimethylpyrrolidin-1-yl]-N-[(2-oxo-1H-pyridin-3-yl)sulfonyl]-6-(p-tolyl)pyridine-3-carboxamide]",++ (“++” means between 3 uM and 10 uM)
8,"CC(C)COc1cc(F)cc(-c2ccc(C(=O)NS(=O)(=O)c3ccn[nH]3)c(NCC3CC(F)(F)C3)n2)c1 [Compound 393, 2-[(3,3-difluorocyclobutyl)methylamino]-6-(3-fluoro-5-isobutoxy-phenyl)-N-(1H-pyrazol-5-ylsulfonyl)pyridine-3-carboxamide]",++ (“++” means between 3 uM and 10 uM)
9,"Cc1cc(C)c(CN2Cc3cccc(O)c3C2(C)C(=O)NS(=O)(=O)c2cccc(N)n2)c(C)c1 (centres unmarked) [Compound 394, N-[(6-amino-2-pyridyl)sulfonyl]-7-hydroxy-1-methyl-2-[(2,4,6-trimethylphenyl)methyl]isoindoline-1-carboxamide]",+++ (“+++” means <3 uM)
10,"CC(C)COc1cc(F)cc(-c2ccc(C(=O)NS(=O)(=O)c3cccc(O)c3)c(N3CC(C)CC3(C)C)n2)c1 (centres unmarked) [Compound 395, 6-(3-fluoro-5-isobutoxy-phenyl)-N-(3-hydroxyphenyl)sulfonyl-2-(2,2,4-trimethylpyrrolidin-1-yl)pyridine-3-carboxamide]",+++ (“+++” means <3 uM)
11,"COc1c(F)cccc1-c1ccc(C(=O)NS(=O)(=O)c2cccc(N)n2)c(Oc2c(C)cc(C)cc2C)n1 [Compound 396, N-[(6-amino-2-pyridyl)sulfonyl]-6-(3-fluoro-2-methoxy-phenyl)-2-(2,4,6-trimethylphenoxy)pyridine-3-carboxamide]",+++ (“+++” means <3 uM)
12,"CC(C)COc1cccc(-c2ccc(C(=O)NS(=O)(=O)c3cccc(N)n3)c(N3CC(C)CC3(C)C)n2)n1 (centres unmarked) [Compound 397, N-[(6-amino-2-pyridyl)sulfonyl]-6-(6-isobutoxy-2-pyridyl)-2-(2,2,4-trimethylpyrrolidin-1-yl)pyridine-3-carboxamide]",+++ (“+++” means <3 uM)
13,"CC(C)COc1cc(F)cc(-c2ccc(C(=O)NS(=O)(=O)c3cccc(N)n3)c(N3CCC[C@@H]3C(F)(F)F)n2)c1 [Compound 398, N-[(6-amino-2-pyridyl)sulfonyl]-6-(3-fluoro-5-isobutoxy-phenyl)-2-[(2R)-2-(trifluoromethyl)pyrrolidin-1-yl]pyridine-3-carboxamide]",+++ (“+++” means <3 uM)
14,"Cc1cc(C)c(Oc2nc(-c3ccc(C)c(C)c3)ccc2C(=O)NS(=O)(=O)c2cccc(N)n2)c(C)c1 [Compound 399, N-[(6-amino-2-pyridyl)sulfonyl]-6-(3,4-dimethylphenyl)-2-(2,4,6-trimethylphenoxy)pyridine-3-carboxamide]",+++ (“+++” means <3 uM)
15,"CC(C)Oc1cncc(-c2ccc(C(=O)NS(=O)(=O)c3cccc(N)n3)c(N3[C@H](C)CC[C@@H]3C)n2)c1 [Compound 400, N-[(6-amino-2-pyridyl)sulfonyl]-2-[(2S,5R)-2,5-dimethylpyrrolidin-1-yl]-6-(5-isopropoxy-3-pyridyl)pyridine-3-carboxamide]",++ (“++” means between 3 uM and 10 uM)
16,"Cc1cc(C)c(Oc2nc(C(C)(C)C)ccc2C(=O)NS(=O)(=O)c2cn[nH]c2)c(C)c1 [Compound 401, 6-tert-butyl-N-(1H-pyrazol-4-ylsulfonyl)-2-(2,4,6-trimethylphenoxy)pyridine-3-carboxamide]",+++ (“+++” means <3 uM)
17,"CC1CN(c2nc(-c3ccnc(OC(C)C)c3)ccc2C(=O)NS(=O)(=O)c2cccc(N)n2)C(C)(C)C1 (centres unmarked) [Compound 402, N-[(6-amino-2-pyridyl)sulfonyl]-6-(2-isopropoxy-4-pyridyl)-2-(2,2,4-trimethylpyrrolidin-1-yl)pyridine-3-carboxamide]",+++ (“+++” means <3 uM)
18,"CC(C)Oc1ccc(-c2ccc(C(=O)NS(=O)(=O)c3ccc[nH]c3=O)c(N3C[C@H](C)CC3(C)C)n2)cn1 [Compound 403, 6-(6-isopropoxy-3-pyridyl)-N-[(2-oxo-1H-pyridin-3-yl)sulfonyl]-2-[(4R)-2,2,4-trimethylpyrrolidin-1-yl]pyridine-3-carboxamide]",++ (“++” means between 3 uM and 10 uM)
19,"Cc1cc(C)c(Cn2c(C(=O)NS(=O)(=O)c3cccc(N)n3)cc3cc(C(C)C)ccc32)c(C)c1 [Compound 404, N-[(6-amino-2-pyridyl)sulfonyl]-5-isopropyl-1-[(2,4,6-trimethylphenyl)methyl]indole-2-carboxamide]",+++ (“+++” means <3 uM)
20,"COc1cc(F)ccc1-c1ccc(C(=O)NS(=O)(=O)c2cc[nH]n2)c(Oc2c(C)cc(C)cc2C)n1 [Compound 405, 6-(4-fluoro-2-methoxy-phenyl)-N-(1H-pyrazol-3-ylsulfonyl)-2-(2,4,6-trimethylphenoxy)pyridine-3-carboxamide]",+++ (“+++” means <3 uM)
21,"COc1ccc2c(c1)CN(Cc1c(C)cc(C)cc1C)C2(C)C(=O)NS(=O)(=O)c1cccc(N)n1 (centres unmarked) [Compound 406, N-[(6-amino-2-pyridyl)sulfonyl]-5-methoxy-1-methyl-2-[(2,4,6-trimethylphenyl)methyl]isoindoline-1-carboxamide]",+++ (“+++” means <3 uM)
22,"Cc1ccc(-c2nc(C(C)(C)C)ccc2C(=O)NS(=O)(=O)c2ccccn2)cc1 [Compound 407, 6-tert-butyl-2-(p-tolyl)-N-(2-pyridylsulfonyl)pyridine-3-carboxamide]",++ (“++” means between 3 uM and 10 uM)
23,"CC(C)COc1cc(F)cc(-c2ccc(C(=O)NS(=O)(=O)c3cccc(N)n3)c(N3CCC[C@@H](C)C3)n2)c1 [Compound 408, N-[(6-amino-2-pyridyl)sulfonyl]-6-(3-fluoro-5-isobutoxy-phenyl)-2-[(3R)-3-methyl-1-piperidyl]pyridine-3-carboxamide]",+++ (“+++” means <3 uM)
24,"CCOc1ccc(-c2ccc(C(=O)NS(=O)(=O)c3cccc(N)n3)c(-c3ccc(C)cc3)n2)cc1 [Compound 409, N-[(6-amino-2-pyridyl)sulfonyl]-6-(4-ethoxyphenyl)-2-(p-tolyl)pyridine-3-carboxamide]",+ (“+” means greater than 10 uM)
25,"CCOc1cccc2c1CN(Cc1c(C)cc(C)cc1C)C2(C)C(=O)NS(=O)(=O)c1ccc[nH]c1=O (centres unmarked) [Compound 410, 4-ethoxy-1-methyl-N-[(2-oxo-1H-pyridin-3-yl)sulfonyl]-2-[(2,4,6-trimethylphenyl)methyl]isoindoline-1-carboxamide]",+++ (“+++” means <3 uM)
26,"CC(C)(C)c1ccc(C(=O)NS(=O)(=O)c2cccc(N)n2)c(C2CCCCC2)n1 [Compound 411, N-[(6-amino-2-pyridyl)sulfonyl]-6-tert-butyl-2-cyclohexyl-pyridine-3-carboxamide]",+++ (“+++” means <3 uM)
27,"CC(C)CN(C)c1ccc(-c2ccc(C(=O)NS(=O)(=O)c3cccc(N)n3)c(N3CC(C)CC3(C)C)n2)cn1 (centres unmarked) [Compound 412, N-[(6-amino-2-pyridyl)sulfonyl]-6-[6-[isobutyl(methyl)amino]-3-pyridyl]-2-(2,2,4-trimethylpyrrolidin-1-yl)pyridine-3-carboxamide]",+++ (“+++” means <3 uM)
28,"COc1cccc(-c2ccc(C(=O)NS(=O)(=O)c3cccc(N)n3)c(Oc3c(C)cc(C)cc3C)n2)c1 [Compound 413, N-[(6-amino-2-pyridyl)sulfonyl]-6-(3-methoxyphenyl)-2-(2,4,6-trimethylphenoxy)pyridine-3-carboxamide]",+++ (“+++” means <3 uM)
29,"CC(C)c1ccc(-c2ccc(C(=O)NS(=O)(=O)c3ccn[nH]3)c(N3[C@H](C)CC[C@@H]3C)n2)cc1 [Compound 414, 2-[(2S,5R)-2,5-dimethylpyrrolidin-1-yl]-6-(4-isopropylphenyl)-N-(1H-pyrazol-5-ylsulfonyl)pyridine-3-carboxamide]",+++ (“+++” means <3 uM)
